In patent publication US20110257208A1, “COMPOUNDS USEFUL AS FAAH MODULATORS AND USES THEREOF” (priority 2008, published 2011):

What follows are molecules tested against T1, hFAAH (Homo sapiens, UniProt O00519) (assay: Fluorimetric assay with hFAAH microsomes (enzymatic, fluorescence based)). Conditions: compound at 1 uM, AA-AMC substrate.
T1 construct: expressed in transfected cells; host or cells: HEK293-TRex (Invitrogen) stably transfected with hFAAH in the pcDNA5-Tet-off vector, or T84 human colon epithelial cells (endogenous hFAAH); used as a microsomal preparation
T1 sequence (O00519 1-579): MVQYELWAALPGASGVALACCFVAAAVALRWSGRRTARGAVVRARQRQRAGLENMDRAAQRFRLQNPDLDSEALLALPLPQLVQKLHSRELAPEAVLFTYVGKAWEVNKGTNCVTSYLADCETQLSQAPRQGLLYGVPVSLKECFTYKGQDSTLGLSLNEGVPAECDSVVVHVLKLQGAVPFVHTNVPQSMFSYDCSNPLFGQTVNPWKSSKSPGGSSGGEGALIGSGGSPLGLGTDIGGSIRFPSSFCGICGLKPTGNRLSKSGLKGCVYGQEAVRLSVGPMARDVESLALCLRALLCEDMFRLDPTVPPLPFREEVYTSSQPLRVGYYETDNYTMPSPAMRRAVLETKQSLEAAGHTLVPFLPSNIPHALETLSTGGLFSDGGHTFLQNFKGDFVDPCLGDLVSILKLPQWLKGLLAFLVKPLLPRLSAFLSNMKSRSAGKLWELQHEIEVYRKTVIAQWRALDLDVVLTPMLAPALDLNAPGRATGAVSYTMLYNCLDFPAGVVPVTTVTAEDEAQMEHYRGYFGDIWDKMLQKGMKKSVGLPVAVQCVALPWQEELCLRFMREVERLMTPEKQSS
Type: biochemical
Description: Human cell line T84 (human colon epithelial cells), which expresses endogenous hFAAH, or HEK293-TRex cells (Invitrogen) stably transfected with hFAAH in the pcDNA5-Tet-off vector are cultured in medium containing DMEM, 10% FBS penicillin/streptomycin, glutamax, 200 μg/ml hygromycin and 0.5 μg/ml blasticidin. Cell collection is done 24 h after induction with doxycycline by first washing the cells with cold PBS and then incubating them with Versene before centrifugation. Cell pellets are then stored at −80° C. until needed. For homogenization, the cell pellets are thawed on ice […] and resuspended in homogenization buffer (50 mM HEPES (pH 7.4), 1 mM EDTA, 1 μM Pepstatin A, 100 μM Leupeptin, 0.1 mg/mL aprotinin). Cell suspensions are then homogenized on ice using the Polytron 1200 C at setting 6 for three 30-second intervals with 30-second rests. The suspension is centrifuged at 1000 g for 10 minutes at 4° C. and the supernatant is collected and further centrifuged at 24000 rpm for 30 minutes at 4° C. using an ultracentrifuge. Pellets are resuspended by adding in cold microsomal buffer (50 mM HEPES (pH 7.4) and 1 mM EDTA) and sheared through a 23-gauge needle five times, keeping the suspension on ice. Protein concentrations are determined using the BCA assay and aliquoted preparations are stored at −80° C. until needed.
Compound potency against hFAAH is determined using an enzymatic assay with a fluorescence readout. Briefly, experiments were carried out in a 96-well plate format (Corning Costar, # 3370) with a total well volume of 160 μL with components added in the following order: assay buffer (50 mM HEPES (pH 7.4), 1 mM EDTA, 1.4 mg/mL BSA), compound solutions (7 different concentrations per compound in duplicate), microsomal enzyme preparation (10 μg per well) and substrate [AA-AMC (arachadonyl 7-amino 4-methyl coumarin amide), 2 μM]. After a brief shaking, a kinetic read of the plate is obtained using a Tecan Safire II in kinetic mode for 275 cycles with excitation and emission wavelengths of 355 and 460 nm, respectively. Raw data is then processed and analyzed using Assay Explorer and GraphPad Prism.
The following compounds have been or can be prepared according to the methods of the invention. An enzymatic (fluorescence based) assay is performed as described above. In Table 1, activity of each compound is expressed as follows: • ++++ % Inhibition >75% • +++ % Inhibition >50% • ++ % Inhibition >25% • + % Inhibition <25%

inhibition at 1 µM [%]	Structure (SMILES)
> 75	c1ccc(CCN2Cc3ncnc(Nc4cnc5ccccc5c4)c3C2)cc1 [Compound 22, (6-Phenethyl-6,7-dihydro-5H-pyrrolo[3,4-d]pyrimidin-4-yl)-quinolin-3-yl-amine]
> 75	Cc1ccc(C)c(CN2Cc3ncnc(Nc4cnc5ccccc5c4)c3C2)c1 [Compound 89, [6-(2,5-Dimethyl-benzyl)-6,7-dihydro-5H-pyrrolo[3,4-d]pyrimidin-4-yl]-quinolin-3-yl-amine]
> 25	c1ccc2ncc(Nc3ncnc4c3CN(C3CCCCCC3)C4)cc2c1 [Compound 40, (6-Cycloheptyl-6,7-dihydro-5H-pyrrolo[3,4-d]pyrimidin-4-yl)-quinolin-3-yl-amine]
> 50	Cc1occc1CN1Cc2ncnc(Nc3cnc4ccccc4c3)c2C1 [Compound 96, [6-(2-Methyl-furan-3-ylmethyl)-6,7-dihydro-5H-pyrrolo[3,4-d]pyrimidin-4-yl]-quinolin-3-yl-amine]
> 75	c1ccc2ncc(Nc3ncnc4c3CN(CC3CCSCC3)C4)cc2c1 [Compound 18, Quinolin-3-yl-[6-(tetrahydro-thiopyran-4-ylmethyl)-6,7-dihydro-5H-pyrrolo[3,4-d]pyrimidin-4-yl]-amine]
> 75	CSc1ccccc1CN1Cc2ncnc(Nc3cnc4ccccc4c3)c2C1 [Compound 102, [6-(2-Methylsulfanyl-benzyl)-6,7-dihydro-5H-pyrrolo[3,4-d]pyrimidin-4-yl]-quinolin-3-yl-amine]
> 75	CC(C1CCCCC1)N1Cc2ncnc(Nc3cnc4ccccc4c3)c2C1 (centres unmarked) [Compound 38, [6-(1-Cyclohexyl-ethyl)-6,7-dihydro-5H-pyrrolo[3,4-d]pyrimidin-4-yl]-quinolin-3-yl-amine]
> 50	Cc1nc(C)c(S(=O)(=O)N2Cc3ncnc(Nc4cnc5ccccc5c4)c3C2)s1 [Compound 61, [6-(2,4-Dimethyl-thiazole-5-sulfonyl)-6,7-dihydro-5H-pyrrolo[3,4-d]pyrimidin-4-yl]-quinolin-3-yl-amine]
< 25	c1ccc2ncc(Nc3ncnc4c3CN(C3CCC3)C4)cc2c1 [Compound 43, (6-Cyclobutyl-6,7-dihydro-5H-pyrrolo[3,4-d]pyrimidin-4-yl)-quinolin-3-yl-amine]

Second part, the molecule before the results:

Structure (SMILES)	inhibition at 1 µM [%]
c1ccc2ncc(Nc3ncnc4c3CN(Cc3cscn3)C4)cc2c1 [Compound 75, Quinolin-3-yl-(6-thiazol-4-ylmethyl-6,7-dihydro-5H-pyrrolo[3,4-d]pyrimidin-4-yl)-amine]	> 25
Cc1cccc(C)c1CN1Cc2ncnc(Nc3cnc4ccccc4c3)c2C1 [Compound 88, [6-(2,6-Dimethyl-benzyl)-6,7-dihydro-5H-pyrrolo[3,4-d]pyrimidin-4-yl]-quinolin-3-yl-amine]	> 50
CCCCN1Cc2ncnc(Nc3cnc4ccccc4c3)c2C1 [Compound 6, (6-Butyl-6,7-dihydro-5H-pyrrolo[3,4-d]pyrimidin-4-yl)-quinolin-3-yl-amine]	> 25
FC(F)(F)c1ccccc1CN1Cc2ncnc(Nc3cnc4ccccc4c3)c2C1 [Compound 95, Quinolin-3-yl-[6-(2-trifluoromethyl-benzyl)-6,7-dihydro-5H-pyrrolo[3,4-d]pyrimidin-4-yl]-amine]	> 75
O=S(=O)(C1CCCC1)N1Cc2ncnc(Nc3cnc4ccccc4c3)c2C1 [Compound 57, (6-Cyclopentanesulfonyl-6,7-dihydro-5H-pyrrolo[3,4-d]pyrimidin-4-yl)-quinolin-3-yl-amine]	> 25
Cc1cnccc1CN1Cc2ncnc(Nc3cnc4ccccc4c3)c2C1 [Compound 78, [6-(3-Methyl-pyridin-4-ylmethyl)-6,7-dihydro-5H-pyrrolo[3,4-d]pyrimidin-4-yl]-quinolin-3-yl-amine]	> 75
Fc1ccccc1CN1Cc2ncnc(Nc3cnc4ccccc4c3)c2C1 [Compound 80, [6-(2-Fluoro-benzyl)-6,7-dihydro-5H-pyrrolo[3,4-d]pyrimidin-4-yl]-quinolin-3-yl-amine]	> 75
CCCN1Cc2ncnc(Nc3cnc4ccccc4c3)c2C1 [Compound 4, (6-Propyl-6,7-dihydro-5H-pyrrolo[3,4-d]pyrimidin-4-yl)-quinolin-3-yl-amine]	< 25
CC(C)(C)OC(=O)N1Cc2ncnc(Nc3cnc4ccccc4c3)c2C1 [Compound 45, 4-(Quinolin-3-ylamino)-5,7-dihydro-pyrrolo[3,4-d]pyrimidine-6-carboxylic acid tert-butyl ester]	> 50
CC(CN1Cc2ncnc(Nc3cnc4ccccc4c3)c2C1)c1ccccc1 (centres unmarked) [Compound 19, [6-(2-Phenyl-propyl)-6,7-dihydro-5H-pyrrolo[3,4-d]pyrimidin-4-yl]-quinolin-3-yl-amine]	> 75
CCCOc1ccccc1CN1Cc2ncnc(Nc3cnc4ccccc4c3)c2C1 [Compound 108, [6-(2-Propoxy-benzyl)-6,7-dihydro-5H-pyrrolo[3,4-d]pyrimidin-4-yl]-quinolin-3-yl-amine]	> 50
Cc1ncsc1CN1Cc2ncnc(Nc3cnc4ccccc4c3)c2C1 [Compound 66, [6-(4-Methyl-thiazol-5-ylmethyl)-6,7-dihydro-5H-pyrrolo[3,4-d]pyrimidin-4-yl]-quinolin-3-yl-amine]	> 75
O=S(=O)(c1ccccc1OC(F)(F)F)N1Cc2ncnc(Nc3cnc4ccccc4c3)c2C1 [Compound 70, Quinolin-3-yl-[6-(2-trifluoromethoxy-benzenesulfonyl)-6,7-dihydro-5H-pyrrolo[3,4-d]pyrimidin-4-yl]-amine]	> 25
CC(C)CCN1Cc2ncnc(Nc3cnc4ccccc4c3)c2C1 [Compound 9, [6-(3-Methyl-butyl)-6,7-dihydro-5H-pyrrolo[3,4-d]pyrimidin-4-yl]-quinolin-3-yl-amine]	> 50
Cc1ccoc1CN1Cc2ncnc(Nc3cnc4ccccc4c3)c2C1 [Compound 86, [6-(3-Methyl-furan-2-ylmethyl)-6,7-dihydro-5H-pyrrolo[3,4-d]pyrimidin-4-yl]-quinolin-3-yl-amine]	> 75
Cc1c(CN2Cc3ncnc(Nc4cnc5ccccc5c4)c3C2)cnn1C [Compound 26, [6-(1,5-Dimethyl-1H-pyrazol-4-ylmethyl)-6,7-dihydro-5H-pyrrolo[3,4-d]pyrimidin-4-yl]-quinolin-3-yl-amine]	> 25
O=C(NCC1CCCCC1)N1Cc2ncnc(Nc3cnc4ccccc4c3)c2C1 [Compound 46, 4-(Quinolin-3-ylamino)-5,7-dihydro-pyrrolo[3,4-d]pyrimidine-6-carboxylic acid cyclohexylmethyl-amide]	< 25
c1ccc2ncc(Nc3ncnc4c3CN(CC3CC3)C4)cc2c1 [Compound 5, (6-Cyclopropylmethyl-6,7-dihydro-5H-pyrrolo[3,4-d]pyrimidin-4-yl)-quinolin-3-yl-amine]	< 25
CCc1ccccc1CN1Cc2ncnc(Nc3cnc4ccccc4c3)c2C1 [Compound 90, [6-(2-Ethyl-benzyl)-6,7-dihydro-5H-pyrrolo[3,4-d]pyrimidin-4-yl]-quinolin-3-yl-amine]	> 75
Cc1noc(C)c1CN1Cc2ncnc(Nc3cnc4ccccc4c3)c2C1 [Compound 67, [6-(3,5-Dimethyl-isoxazol-4-ylmethyl)-6,7-dihydro-5H-pyrrolo[3,4-d]pyrimidin-4-yl]-quinolin-3-yl-amine]	> 25
